Assay results: PMC9410537, “Discovery of Ircinianin Lactones B and C—Two New Cyclic Sesterterpenes from the Marine Sponge Ircinia wistarii” (Marine Drugs, 2022)
Where two headings read alike, the source gives them in different places.

Assays:
[1] = test system: P. falciparum NF54 strain; experiment: In vitro activity against erythrocytic stages of P. falciparum (3H-hypoxanthine incorporation assay); type: cell-based; details: Plasmodium falciparum, Table 2 values are means of two independent assays
Description: Activity against P. falciparum. In vitro activity against erythrocytic stages of P. falciparum was determined using a ^3H-hypoxanthine incorporation assay against the drug-sensitive NF54 strain [76]. Compounds were dissolved in DMSO at 10 mg/mL and further diluted in medium before being added to parasite cultures incubated in RPMI 1640 medium without hypoxanthine, supplemented with HEPES (5.94 g/L), NaHCO3 (2.1 g/L), neomycin (100 U/mL), Albumax^R (5 g/L) and washed human red cells A^+ at 2.5% haematocrit (0.3% parasitaemia). Serial drug dilutions ranged from 100 to 0.002 μg/mL. The 96-well plates were incubated in a humidified atmosphere at 37 °C; 4% CO2, 3% O2, 93% N2. After 48 h 50 μL of ^3H-hypoxanthine (=0.5 μCi) was added to each well of the plate. The plates were incubated for a further 24 h under the same conditions. The plates were then harvested with a Betaplate™ cell harvester (Wallac, Zurich, Switzerland) and the red blood cells were transferred onto a glass fiber filter then washed with distilled water. The dried filters were inserted into a plastic foil with 10 mL of scintillation fluid and counted in a Betaplate™ liquid scintillation counter (Wallac, Zurich, Switzerland). IC50 values were calculated from sigmoidal inhibition curves by linear regression using Microsoft Excel. Chloroquine diphosphate (Sigma C6628) was used as control (IC50 0.006 ± 0.002 μM).

[2] = test system: L-6 cells (rat skeletal myoblasts); experiment: In vitro cytotoxicity assay with L-6 cells (resazurin); type: cell-based; details: L6, L-6 cells, read-out: IC50 L6
Description: In vitro cytotoxicity assay with L-6 cells. Assays were performed in 96-well microtiter plates, each well containing 100 μL of RPMI 1640 medium supplemented with 1% L-glutamine (200 mM) and 10% fetal bovine serum, and 4000 L-6 cells (a primary cell line derived from rat skeletal myoblasts). Serial drug dilutions ranged from 100 to 0.002 μg/mL. After 70 h of incubation, the plates were inspected under an inverted microscope to assure growth of the controls and sterile conditions. 10 μL of resazurin was then added to each well and the plates were incubated for another 2 h. […] Podophyllotoxin (Sigma P4405) was used as control (IC50 0.011 ± 0.005 μM).

[3] = test system: Mytilus galloprovincialis larvae; experiment: Marine antifouling assay, larval settlement and metamorphosis; details: up to the highest concentration tested (100 µg/mL), 5 days
Description: (§1) Antifouling activity was assessed via inhibition of settlement and metamorphosis of larvae of the Pacific transparent sea squirt (Ciona savignyi) and the blue mussel (Mytilus galloprovincialis). Methods followed those published by Grant et al.. Adults of both species were collected from coastal populations in the Nelson region of New Zealand, held in a recirculating seawater system (18 ± 1 °C, 33 ± 1 PSU) and fed bulk-cultured Isochorysis galbana until ready to spawn. Larval spawning and rearing procedures followed previously described methods for C. savignyi and M. gallorprovincialis. Competent larvae were diluted in artificial seawater to yield 3 ± 1 larvae/mL. Aliquots of these larval suspensions were added to 12-well tissue culture plates (Corning Co-Star) containing serial dilutions of 1 ranging from 0.1–100 µg/mL. Controls were included, and three replicates were performed in all cases. After 5 days of incubation at 18 ± 1 °C, the number of successfully settled and metamorphosed individuals were counted in each well. Sigmoidal dose-response relationships were explored using R Statistical Software to determine whether inhibition had occurred relative to the controls.

[4] = test system: Ciona savignyi larvae; experiment: as above; details: up to the highest concentration tested (100 µg/mL), 5 days
Description: as §1

[5] = test system: Trypanosoma brucei rhodesiense STIB900; experiment: Activity against Trypanosoma brucei rhodesiense STIB900 (resazurin); details: Table 2 values are means of two independent assays
Description: Activity against Trypanosoma brucei rhodesiense STIB900. […] Minimum Essential Medium (50 µL) supplemented with 25 mM HEPES, 1 g/L additional glucose, 1% MEM non-essential amino acids (100×), 0.2 mM 2-mercaptoethanol, 1 mM Na-pyruvate and 15% heat inactivated horse serum was added to each well of a 96-well microtiter plate. Serial drug dilutions ranging from 100 to 0.002 μg/mL were prepared. Then, 4 × 10^3 bloodstream forms of T. b. rhodesiense STIB 900 in 50 µL were added to each well and the plate was incubated at 37 °C under a 5% CO2 atmosphere for 70 h. 10 µL of a resazurin solution (resazurin, 12.5 mg in 100 mL double-distilled water) was then added to each well and incubation continued for a further 2–4 h [70]. The plates were read with a Spectramax Gemini XS microplate fluorometer (Molecular Devices Cooperation, Sunnyvale, CA, USA) using an excitation wavelength of 536 nm and an emission wavelength of 588 nm. Data were analyzed using Softmax Pro (Molecular Devices Cooperation, Sunnyvale, CA, USA), which calculated IC50 values by linear regression [71] and 4-parameter logistic regression from the sigmoidal dose inhibition curves.

[6] = test system: Litomosoides sigmodontis adult female worms; experiment: Anthelmintic assay, motility of adult filariae cultured in vitro; type: cell-based; details: 0.1, 1 and 10 µM; scale 0 (immotile) to 2 (maximum motility); 2.0 in media controls
Description: To investigate the activity against filarial nematodes, adult female worms of the rodent filarial nematode Litomosoides sigmodontis were cultured in vitro with a 0.1, 1 and 10 µM concentration of 1. Motility of adult filariae as well as reduction of Wolbachia endosymbionts were assessed. […] L. sigmodontis adult female worms were isolated from chronically infected cotton rats (UKB). Three L. sigmodontis female adult worms per condition were cultured in supplemented Minimal Essential Medium (MEM) on a LLCMK2 cell layer, as previously described. […] Candidate 1 was tested at concentrations of 0.1, 1 and 10 µM. Filarial viability was assessed by determining the mean worm motility scores on a scale of 0 (immotile) to 2 (maximum motility) before drug addition and at 1 h, 1 day, 2 day, 4 day, 6 day, 8 day, 10 day, 12 day and 14 day post drug addition. The drug-containing media was renewed every other day. Depletion of Wolbachia endosymbionts from female adult worms was analyzed after two weeks of in vitro culture and determined as previously described using primers for the single copy gene Wolbachia ftsZ.

[7] = test system: panel comprising 60 human cancer cell lines; experiment: One dose NCI-60 cell-line cytotoxicity screen; type: cell-based; details: single high dose
Excerpt: One dose NCI-60 panel: 1 was selected for the anticancer drug screening service as a part of the Developmental Therapeutics Program at the National Cancer Institute (NCI). In vitro tumor growth inhibitory effects were explored using a standard protocol with a single high dose test against a panel comprising 60 human cancer cell lines. It is noteworthy to mention that we had to remove the results of the NCI-H23 cell line, since NCI informed us that its cell line’s identity was not authenticated during the time frame in which the screening of 1 was conducted.

[8] = test system: Human Cytomegalovirus (HCMV); type: cell-based; details: up to the highest concentration tested (10 µM), HFF cells
[9] = test system: E. aerogenes ATCC13048; experiment: Antibacterial assay (MIC); type: cell-based, Enterobacter aerogenes; details: Klebsiella aerogenes
Description: (§2) The minimal inhibitory concentration (MIC) was determined as described previously in cation-adjusted Mueller-Hinton medium according to the standards and guidelines of the Clinical and Laboratory Standards Institute. […] After an overnight incubation at 37 °C, the MIC was read as the lowest compound concentration preventing visible bacterial growth. The strain panel included representative species of nosocomial pathogens, known as “[…]” bacteria. Specifically, the following strains were used: Enterococcus faecium BM 4147-1, Staphylococcus aureus ATCC 29213, Klebsiella pneumoniae ATCC 12657, Acinetobacter baumannii 09987, Pseudomonas aeruginosa ATCC 27853, and Enterobacter aerogenes ATCC 13048. Bacillus subtilis 168, Escherichia coli ATCC 25922, and Mycobacterium smegmatis mc^2 155 ATCC 700084 were used as further reference strains.

[10] = test system: M. smegmatis mc2 155; experiment: Antibacterial assay (MIC); type: cell-based, Mycobacterium smegmatis; details: Mycolicibacterium smegmatis, MC2155
Description: as §2

`CC1=C[C@@H](/C=C(\C)CCCc2ccoc2)[C@]2(OC(=O)C(C)=C2O)[C@@H]2[C@@H](C)CC[C@@H]12` [compound 1, Ircinianin] showed an IC50 [1] of 25.4 µM, an IC50 ([2]; 70 h incubation) of 150 µM and an IC50 ([2]; single cell line assays (Table S7)) of 59.5 µg/mL. The “Inhibitory effect on larval settlement and metamorphosis” value [3] was “inactive”, the “Inhibitory effect on larval settlement and metamorphosis” value [4] was “inactive” and the IC50 ([5]; Trypanosoma brucei, RHODESIENSE|STIB900, read-out: IC50 T. brucei rhodesiense, in vitro, STIB900 bloodstream forms) was over 80 µM. For the same molecule, the IC50 ([5]; read-out: IC50 T. brucei rhodesiense, in vitro, STIB900 bloodstream forms, listed as Ircinianin (1)) was 82.8 µM, the motility score [6] was 1.7–1.8 and the “Activity in NCI 60 cell-line cytotoxicity screen” value [7] was “no activity”. For the same molecule, the “Inhibition of HCMV infection” value [8] was “no inhibition”, the MIC [9] was over 32 µg/mL and the MIC [10] was over 32 µg/mL.
